Reference: patent US20240123036A1, “COMPOSITIONS AND METHODS FOR THE TREATMENT OF GRAFT VERSUS HOST DISEASE” (VectivBio AG, priority 2021, published 2024)
Like-named read-outs stand apart in the source and are kept apart here. Square brackets hold non-standard residues; d marks the D form. Peptide text beside a SMILES is read from it. ξ: configuration not given here. Ile(3ξ) = CCC(C)[C@H](N)C(=O)O; Thr(3ξ) = CC(O)[C@H](N)C(=O)O; Nle = CCCC[C@H](N)C(=O)O

Tests used:
[1] = test system: blood cells of Balb/c mice; experiment: Melphalan-induced immunosuppression in Balb/c mice (Example 5, third experiment); format: in vivo, mouse
Method: In a third experiment, the effect of apraglutide on melphalan-induced immunosuppression was assessed (FIG. 13). Three groups of Balb/c mice were included: (A) vehicle; (B) melphalan on Day 9; (C) melphalan on Day 9, apraglutide pre-treatment on Days 1, 3, 5, 7 and continued as co-administration on Days 9, 11, and 13. WBC, NEU and LYMPH were assessed.

[2] = test system: blood cells of Balb/c mice; experiment: Cytarabine-induced immunosuppression, blood cell counts in Balb/c mice (Example 5, second experiment); format: in vivo, mouse; parameters: reduction in lymphocytes / Red blood cells, percentage difference from control / Platelets, percentage difference from control / White blood cells, percentage difference from control / Lymphocytes, percentage difference from control / Neutrophils, percentage difference from control: concentration or dose not given beside the values
Method: In a second experiment, apraglutide's effect on the ability of cytarabine to induce immunosuppression was assessed. The experiment included three groups of Balb/c mice: (A) vehicle; (B) cytarabine on Days 5-9; (C) cytarabine on Days 5-9, concomitant apraglutide on Days 5-18. RBC, platelets, WBC, NEU and LYMPH were assessed. A cohort was allowed to survive for 4 weeks to assess the effect of apraglutide on immunosuppression recovery (FIG. 12).

[3] = test system: human leukemia cells (hCD45+) in NOD/SCID mice; conditions: Day 7; cytarabine Days 0-4; apraglutide or vehicle Days -4 to 4
Method: In a first experiment, cytarabine' s anti-tumor effects were assessed in leukemic NOD/SCID mice (FIG. 11a). Apraglutide or vehicle was administered on Days -4 to 4. Cytarabine or vehicle was administered on Days 0-4. Bone marrow and spleen samples were collected on Day 7 and percentage of hCD45+ cells determined.

[4] = test system: cytarabine-induced damage in BALB/cJ female mice; conditions: for polymorphonuclear (PMN) cell count: cytarabine 30 mg/kg twice per day, alone or combined with hGLP-2 or apraglutide, FIG. 20
Method: In a first experiment BALB/cJ female mice were separated into six groups for a dose-response study to assess the pharmacologic effect of increasing doses of apraglutide (0.11, 0.3 and 1.1 mg/kg) administered subcutaneously. Cytarabine was administered intraperitoneally at 30 mg/kg twice per day for 5 days (Day 0 to Day +4). Apraglutide was administered daily for a total of nine days, 4 days before and 5 days during the administration of chemotherapy (Day −4 to Day +4). Apraglutide effect was compared to unmodified hGLP-2 which was administered twice daily from Day −4 to Day +4, at a nominal dose of 0.60 mg/kg and combined with cytarabine.

[5] = test system: fecal microbiota (Bacteroidetes, Firmicutes) of Balb/c mice; conditions: feces
[6] = test system: chemotherapy-induced gastrointestinal damage in Balb/c mice; experiment: Chemotherapy-induced (cytarabine or melphalan) intestinal damage in Balb/c mice (Example 3); format: in vivo, mouse
Method: In a first experiment, 4 groups of Balb/c mice: (A) vehicle only; (B) cytarabine on Days 5-9, no apraglutide given; (C) cytarabine on Days 5-9; concomitant apraglutide on Days 5-18; (D) cytarabine on Days 5-9; pre-treatment apraglutide on Days 1, 3, and continued as concomitant treatment on Days 5, 8, 11, 14, and 17. Treatment groups were dosed with 30 mg/kg cytarabine and/or apraglutide 3.3 mg/kg.
In a second experiment, 3 treatment groups of Balb/c mice: (A) vehicle only; (B) melphalan on Day 9, no apraglutide; (C) melphalan on Day 9; pre-treatment apraglutide on Days 1, 3, 5, 7 and continued as concomitant treatment on Days 9, 11, and 13.
In both models, mice that received vehicle without any treatment served as controls. Intestinal tissue histology, body weight, survival, and plasma citrulline, a marker of total mucosal mass and intestinal growth, was assessed in both models.

[7] = test system: acute gastrointestinal GvHD in BALB/cJ male mice; experiment: Acute GvHD mouse model, 8.5 Gy irradiation plus allogeneic bone marrow/spleen cell transplant (Example 1, first experiment); format: in vivo
Method: Mouse #3 (Group A), #13 (Group B) and #20 (Group B) were administered the cells by subcutaneous injection rather than intravenously. Mouse #5 (Group B) and #10 (Group B) received half the cells by intravenous injection and half by subcutaneous injection.
Following sacrifice of the mice, the colon lengths of the mice in Group A and Group B, as well as a control group of BALB/c mice (untreated), were measured. […] Thus, treatment with apraglutide protected the mice in Group A from a reduction in colon length, which is typically attributed to the inflammation caused by acute, gastrointestinal GvHD.
Various histological parameters of the jejunum were also measured, including single cell necrosis levels, necrosis of all crypts, shortening of villi, cryptal hyperplasia (regenerative), cell infiltrate, and cryptal abscess. These histological parameters were graded on a standard histological grading system (1 to 3). […] These indicate that the administration of apraglutide has a protective effective against jejunal mucosal damages induced by irradiation and GvHD.

[8] = test system: hPBMC engraftment in NOG mice; experiment: Engraftment of human PBMC in total-body-irradiated NOG mice (Example 2, first experiment); format: in vivo, mouse
Method: Engraftment rate was determined through CD45 expression in blood, bone marrow and spleen.

[9] = test system: acute gastrointestinal GvHD in BALB/cJ male mice; experiment: Acute GvHD mouse model, 7.0 Gy irradiation plus allogeneic transplant (Example 1, second experiment); format: in vivo
Text: FIG. 3a-3b is a series of graphs showing colon length and small intestine length in an acute GvHD mouse model following treatment with apraglutide. Data are shown as the mean ±SEM length of intestinal colon. N-5-10/group. Each dot represents data for one mouse.
FIG. 14 is a series of graphs showing that treatment with apraglutide improves animal survival of TBI/BMT treated animals. Kaplan-Meier curves—Animal survival was monitored daily. N=10 at time=0 for each treatment group. […] When comparing to the control group, survival of TBI/BMT was significant different ### p=0.0007. BMT=b one marrow transplant; TBI=total body irradiation.

[10] = test system: GvHD-induced intestinal damage in BALB/cJ mice; experiment: TBI-induced intestinal damage and allogeneic transplantation in BALB/cJ mice (Example 2, second experiment); format: in vivo, mouse
Method: Intestinal damage indicative of GvHD (histological changes, length, hemorrhage, inflammation), body weight, and survival were assessed.

[11] = melphalan on Day 9, with or without apraglutide
[12] = Day 18 (post-treatment), cytarabine 30 mg/kg Days 5-9, apraglutide 3.3 mg/kg Days 1-18

Structure (SMILES): N[C@@H](Cc1ccc(N(CCCl)CCCl)cc1)C(=O)O [melphalan, Melphalan]
- LYMPH vs vehicle [1, 11]: severe decreases
- WBC vs vehicle [1, 11]: severe decreases

Structure (SMILES): Nc1ccn([C@@H]2O[C@H](CO)[C@@H](O)[C@@H]2O)c(=O)n1 [Cytarabine only, Cytarabine]
- Lymphocytes, percentage difference from control ([2]; at treatment end): −91%
- Neutrophils, percentage difference from control ([2]; at treatment end): −82%
- Platelets, percentage difference from control ([2]; at treatment end): −68%
- Red blood cells, percentage difference from control ([2]; at treatment end): −23%
- White blood cells, percentage difference from control ([2]; at treatment end): −89%
- reduction in lymphocytes ([2]; end of the treatment period): 91%
- percentage of hCD45 in bone marrow after chemotherapy [3]: 35.5±4%
- polymorphonuclear (PMN) cell count [4]: depleted
- Mean % of taxa at the Phylum level, Bacteroidetes, Day 0 ([5]; Day 0 (pre-treatment)): 16.3%
- Mean % of taxa at the Phylum level, Firmicutes, Day 0 ([5]; Day 0 (pre-treatment)): 78.7%
- Mean % of taxa at the Phylum level, Bacteroidetes, Day 18 [5, 12]: 48.7%
- Mean % of taxa at the Phylum level, Firmicutes, Day 18 [5, 12]: 49.5%

Structure (SMILES): CCCC[C@H](NC(=O)[C@H](CCC(=O)O)NC(=O)[C@H](CC(=O)O)NC(=O)[C@H](CO)NC(=O)[C@H](Cc1ccccc1)NC(=O)[C@H](CO)NC(=O)CNC(=O)[C@H](CC(=O)O)NC(=O)CNC(=O)[C@@H](N)Cc1c[nH]cn1)C(=O)N[C@H](Cc1ccccc1)C(=O)N[C@H](C(=O)N[C@H](C(=O)N[C@@H](CC(C)C)C(=O)N[C@@H](CC(=O)O)C(=O)N[C@@H](CC(C)C)C(=O)N[C@@H](CC(C)C)C(=O)N[C@@H](C)C(=O)N[C@@H](C)C(=O)N[C@@H](CCCNC(=N)N)C(=O)N[C@@H](CC(=O)O)C(=O)N[C@@H](Cc1ccccc1)C(=O)N[C@H](C(=O)N[C@@H](CC(N)=O)C(=O)N[C@@H](Cc1c[nH]c2ccccc12)C(=O)N[C@@H](CC(C)C)C(=O)N[C@H](C(=O)N[C@@H](CCC(N)=O)C(=O)N[C@H](C(=O)N[C@@H](CCCCN)C(=O)N[C@H](C(=O)N[C@H](C(=O)N[C@@H](CC(=O)O)C(N)=O)C(C)O)C(C)CC)C(C)O)C(C)CC)C(C)CC)C(C)CC)C(C)O (stereo partly drawn) [apraglutide] (H-HGDGSFSDE[Nle][dF][Thr(3ξ)][Ile(3ξ)]LDLLAARDF[Ile(3ξ)]NWL[Ile(3ξ)]Q[Thr(3ξ)]K[Ile(3ξ)][Thr(3ξ)]D-NH2)
- impact on cytarabine- or melphalan-induced immunosuppression ([1]; combination with apraglutide): no negative impact
- recovery of hematological parameters ([2]; 4 weeks after the end of treatment): did not impact
- chemotherapy-induced weight loss ([6]; FIG. 8): attenuated
- degenerative intestinal changes (villi and crypt atrophy) caused by cytarabine or melphalan ([6]; apraglutide 3.3 mg/kg co-administration, histology): reduced
- overall survival ([6]; vs vehicle-only or chemotherapy-only groups, FIG. 9): improved
- weight of duodenum, ileum and jejunum ([6]; with apraglutide): increased in weight
- colon length ([7]; apraglutide 3 mg/kg s.c. every second day Day -9 to +7, 8.5 Gy, vs vehicle group and untreated control mice, FIG. 1): increased colon lengths that were nearly the same as the control mice
- overall mean severity score of mucosal degenerative/inflammatory changes in the jejunum ([7]; apraglutide 3 mg/kg s.c., compared with vehicle, histological grading 1 to 3): slightly decreased
- mean severity score of the regenerative cryptal hyperplasia ([7]; jejunum, apraglutide 3 mg/kg s.c., compared with vehicle): slightly increased
- engraftment rate in blood, spleen and bone marrow ([8]; apraglutide 3.3 mg/kg Days -6 to 18, CD45 expression): not affected
- hCD45+ cells infiltration in the intestinal wall ([8]; apraglutide vs vehicle): no difference
- engraftment rate in blood ([8]; at D20 in blood, range): 22.2-47.6%
- animal survival ([4]; apraglutide 0.11 mg/kg s.c. daily Day -4 to +4 with cytarabine 30 mg/kg i.p. twice per day Day 0 to +4): 11/16
- citrulline concentrations ([4]; apraglutide 0.33 mg/kg and 1.1 mg/kg co-administered with cytarabine, compared to cytarabine alone, FIG. 19): improvement
- animal survival ([4]; apraglutide 0.33 mg/kg s.c. daily Day -4 to +4 with cytarabine 30 mg/kg i.p. twice per day Day 0 to +4): 14/16
- animal survival ([4]; apraglutide 1.1 mg/kg s.c. daily Day -4 to +4 with cytarabine 30 mg/kg i.p. twice per day Day 0 to +4): 16/16
- initial weight loss ([4]; combination with cytarabine, apraglutide 0.11 mg/kg, hGLP-2 0.60 mg/kg twice daily): did not decrease
- body weight and survival in animals recovering from cytarabine treatment ([4]; combination with cytarabine, apraglutide 0.11 mg/kg, hGLP-2 0.60 mg/kg twice daily, FIG. 18): a trend towards increased body weight and survival
- polymorphonuclear (PMN) cell count [4]: not reversed
- body weight of mice surviving beyond Day 9 ([9]; Group A (apraglutide)): regained body weight
- weight loss ([9]; Group A (apraglutide) vs Group B (vehicle)): No significant difference
- length of the small intestine ([9]; across the three Groups, FIG. 3): no differences were observed
- median survival ([9]; apraglutide 3 mg/kg s.c. every second day Day -9 to +7, 7.0 Gy + transplant): 9 days
- mice survived past Day 9 ([9]; apraglutide 3 mg/kg s.c., 7.0 Gy + transplant): 40%
- animal survival (Kaplan-Meier, log-rank test) ([9]; apraglutide initiated before TBI/BMT, FIG. 14, p<0.03): significant difference relative to TBI/BMT animals
- mice showing an intestinal pathological score of 0 ([9]; macroscopic score 0 least severe to 4 most severe, Group A): four out of out of ten
- lymphocyte engraftment ([10]; apraglutide 3.3 mg/kg Days -9 to +7): successfully achieved
- mean colon length ([10]; apraglutide 3.3 mg/kg, TBI + allogeneic transplantation): 8.6±0.35 cm
- mucosal degenerative/inflammatory changes (post-mortem histological examination) ([10]; apraglutide vs vehicle): less
- overall survival ([10]; on Day +9, p=0.0134 vs vehicle): 40%
